Assays:
IL-1β = test: PBMC assay, IL-1β; assay type: cell-based; details: human PBMCs, 30 min with compound, then 100 ng/ml LPS for 6 hrs, supernatant analysed via MSD technology, read-out: IL1β IC50
Experimental: The activity of a compound according to the present invention can be assessed by in vitro methods.
(§1) Peripheral venous blood was collected from healthy individuals and human peripheral blood mononuclear cells (PBMCs) were isolated from blood by Ficoll-Histopaque (Sigma-Aldrich, A0561) density gradient centrifugation. After isolation, PBMCs were stored in liquid nitrogen for later use. Upon thawing, PBMC cell viability was determined in growth medium (RPMI media supplemented with 10% fetal bovine serum, 1% Pen-Strep and 1% L-glutamine). Compounds were spotted in a 1:3 serial dilution in DMSO and diluted to the final concentration in 30 μl medium in 96 well plates (Falcon, 353072). PBMCs were added at a density of 7.5×10^4 cells per well and incubated for 30 min in a 5% CO2 incubator at 37° C. LPS stimulation was performed by addition of 100 ng/ml LPS (final concentration, Invivogen, tlrl-smlps) for 6 hrs followed by collection of cellular supernatant and the analysis of IL-1β (μM) and TNF cytokines levels (μM) via MSD technology according to manufacturers' guidelines (MSD, K151A0H).
(§2) The IC50 values (for IL-1β) and EC50 values (TNF) were obtained on compounds of formula (I)/examples, and are depicted in the following table: […]

TNF = test: PBMC assay, TNF; assay type: cell-based; details: human PBMCs, 30 min with compound, then 100 ng/ml LPS for 6 hrs, supernatant analysed via MSD technology
Experimental: as §1, §2

Row | Compound | IC50 (IL-1β) [µM] | EC50 (TNF) [µM] | melting point [°C]
1 | CN(C)c1nn(CC(=O)Nc2ccc3nncn3c2)c(=O)c2ccc(C(F)(F)F)cc12 [Compound 1H, N-([1,2,4]triazolo[4,3-a]pyridin-6-yl)-2-(4-(dimethylamino)-1-oxo-6-(trifluoromethyl)phthalazin-2(1H)-yl)acetamide] | 0.08 | > 10 | –
2 | CC(C)n1ccc(NC(=O)Cn2nc(N3CC(F)(F)C3)c3cc(C(F)(F)F)ccc3c2=O)n1 [Compound 3G] | > 10 | > 10 | 220
3 | CN(C)c1nn(CC(=O)N[C@H]2C[C@@](C)(O)C2)c(=O)c2ccc(Br)cc12 [Compound 5C] | 0.03 | > 10 | 193.2
4 | CN(C)CCN(C)c1nn(CC(=O)Nc2ccc3nncn3c2)c(=O)c2ccc(C(F)(F)F)cc12 [Compound 6C] | > 10 | > 10 | –
5 | CN(C)c1nn(CC(=O)Nc2ccc3nncn3n2)c(=O)c2ccc(Br)cc12 [Compound 11A] | 0.05 | > 10 | 231.6
6 | CN(C)c1nn(CC(=O)Nc2ccc3nncn3n2)c(=O)c2ccc(Cl)cc12 [Compound 10A] | 0.13 | > 10 | 270.3
7 | C[C@]1(O)C[C@@H](NC(=O)Cn2nc(N3CC(F)(F)C3)c3cc(C(F)(F)F)ccc3c2=O)C1 [Compound 3F] | 3.09 | > 10 | 213.3
8 | COCCN(C)c1nn(CC(=O)Nc2ccc3nncn3c2)c(=O)c2ccc(C(F)(F)F)cc12 [Compound 7C] | 5.63 | > 10 | –
9 | CN(C)c1nn(CC(=O)Nc2ccc3nncn3c2)c(=O)c2ccc(Cl)cc12 [Compound 8I] | 0.31 | > 10 | 295.3
10 | CN(C)c1nn(CC(=O)Nc2ccc3nncn3n2)c(=O)c2ccc(C(F)(F)F)cc12 [Compound 2A, N-([1,2,4]triazolo[4,3-b]pyridazin-6-yl)-2-(4-(dimethylamino)-1-oxo-6-(trifluoromethyl)phthalazin-2(1H)-yl)acetamide] | 0.07 | > 10 | –
11 | CN(C)c1nn(CC(=O)N[C@H]2C[C@@](C)(O)C2)c(=O)c2ccc(C(F)(F)F)cc12 [Compound 1J] | 0.07 | > 10 | 184.8
12 | CN(C)c1nn(CC(=O)N[C@H]2C[C@@](C)(O)C2)c(=O)c2cc(Cl)ccc12 [Compound 9H] | > 10 | > 10 | 173.1
13 | CN(C)c1nn(CC(=O)N[C@H]2C[C@@](C)(O)C2)c(=O)c2ccc(Cl)cc12 [Compound 8H] | 0.12 | > 10 | 184.8
14 | CN(C)c1nn(CC(=O)Nc2ccncn2)c(=O)c2ccc(C(F)(F)F)cc12 [Compound 1I] | 0.17 | > 10 | 238.3
15 | CN(C)c1nn(CC(=O)Nc2ccc(=O)n(C)n2)c(=O)c2ccc(Br)cc12 [Compound 5E] | 0.17 | > 10 | 246.8
16 | O=C(Cn1nc(N2CC(F)(F)C2)c2cc(C(F)(F)F)ccc2c1=O)Nc1ccc2nncn2c1 [Compound 3C] | > 10 | > 10 | –
17 | CN(C)c1nn(CC(=O)Nc2ccc(=O)n(C)n2)c(=O)c2ccc(Cl)cc12 [Compound 8J] | 0.84 | > 10 | 253.4
18 | CN(C)c1nn(CC(=O)Nc2ccc(=O)n(C)n2)c(=O)c2ccc(C(F)(F)F)cc12 [Compound 1K] | 0.36 | > 10 | 241.8
19 | O=C(Cn1nc(N2CC(F)(F)C2)c2cc(Br)ccc2c1=O)Nc1ccncn1 [Compound 4G] | 4.29 | > 10 | 286.8
20 | O=C(Cn1nc(N2CC(F)(F)C2)c2cc(C(F)(F)F)ccc2c1=O)Nc1ccnnc1 [Compound 3E] | 9.61 | > 10 | 221.6
21 | CN(C)c1nn(CC(=O)Nc2ccc(=O)n(C)n2)c(=O)c2cc(Cl)ccc12 [Compound 9I] | > 10 | > 10 | 213.2
22 | CN(C)c1nn(CC(=O)Nc2ccc3nncn3c2)c(=O)c2ccc(Br)cc12 [Compound 5D] | 0.05 | > 10 | > 300
23 | CN(C)c1nn(CC(=O)Nc2ccc3nncn3c2)c(=O)c2cc(Cl)ccc12 [Compound 9J] | > 10 | > 10 | > 300
24 | O=C(Cn1nc(N2CC(F)(F)C2)c2cc(C(F)(F)F)ccc2c1=O)Nc1ccncn1 [Compound 3D] | 3.32 | > 10 | 288.6

Source: patent US20240239757A1, “PHTHALAZINONE DERIVATES AS NLRP3 INFLAMMASOME INHIBITORS” (JANSSEN PHARMACEUTICA NV, priority 2021, published 2024)
